Assay results as given in PubChem BioAssay AID179 (DTP/NCI, 2004).
“And” between values parts separate entries of the source, which are not always exact repeats. Equal entries are not always repeated. The source made the active and inactive calls.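 Rule for the calls: active = compounds giving half or more protection of infected cells from virus-caused growth loss, again on retest; inactive = the rest.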

System: CEM cells HIV-1 protection, formazan growth assay
Test: NCI AIDS Antiviral Assay
Details: for IC50: measured here: growth of uninfected CEM cells
Summary of the method: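 Soluble formazan readout of cell growth; CEM cells ± HIV-1; 5 drug concs. ≥50% protection → retest; ≥50% again = moderately active; reproducible 100% = confirmed active.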

## CC1COS(=O)N1c1ccccc1 (stereo unspecified)
  EC50: > 479 µM
  IC50: > 479 µM

## c1ccc(-c2nnc3oc(-c4cccs4)nn23)cc1
  EC50: > 100 µM
  IC50: > 100 µM

## O=C(O)c1ccc(N=Nc2ccc(CCc3ccc(N=Nc4ccc(C(=O)O)cc4O)cc3S(=O)(=O)O)c(S(=O)(=O)O)c2)c(O)c1
  EC50: 19.5 µM
  IC50: 234 µM

## N#CC(C#N)=Cc1cc(Cl)ccc1O
  EC50: > 200 µM
  IC50: 29.5 µM

## O=C(Nc1nc2ccccc2[nH]1)C(=O)NC12CC3CC(CC(C3)C1)C2
  outcome: inactive

## CC(=O)N(CN1C(=O)CCC1C(=O)O)c1ccc(C)cc1 (stereo unspecified)
  outcome: inactive

## CC(C(=O)NCCNC(=O)CCCC(=O)N(C)O)C(=O)NCCNC(=O)CCCC(=O)N(C)O
  EC50: > 200 µM
  IC50: > 200 µM

## Nc1cc(C(=O)O)ccc1O
  EC50: > 200 µM
  IC50: 39.8 µM

## C=C(Br)CNC(=O)Nc1ccc(Cl)c(Cl)c1
  EC50: > 200 µM
  IC50: 21.9 µM

## COC(=O)c1cc2c(C(=O)OC)cc1CSCc1cccc(c1)CSC2
  EC50: > 200 µM
  IC50: > 200 µM

## C[C@]1(O)CC(=O)c2c(c(-c3ccc4cc5c(c(O)c4c3O)C(=O)C[C@@](C)(O)C5)c3cccc(O)c3c2O)C1
  EC50: > 200 µM
  IC50: 1.32 µM

## Cc1ccc(Nc2nc3ccccc3nc2NS(=O)(=O)c2ccc(N)cc2)cc1
  EC50: > 200 µM
  IC50: 43.7 µM

## O=C(/C=C/c1ccc2c(c1)OCO2)c1ccc(O)cc1
  EC50: > 200 µM
  IC50: 29.5 µM

## Cn1c(N=P(c2ccccc2)(c2ccccc2)c2ccccc2)c([N+](=O)[O-])c(=O)n(C)c1=O
  outcome: inactive

## CC(C)(C)C(=O)O[C@@H]1COC2C(O)COC21 (stereo partly specified)
  EC50: > 1070 µM
  IC50: 977 µM

## COc1ccc2nc3c([N+](=O)[O-])ccc4c3c(c2c1)NCCN4C
  EC50: > 100 µM
  IC50: 0.513 µM

## O=C(O)C1COCN1C(=O)c1cccnc1SSc1ncccc1C(=O)N1COCC1C(=O)O (stereo unspecified)
  EC50: > 200 µM
  IC50: > 200 µM

## CC1C(O)Oc2cc3c(cc2C1c1ccccc1O)OCO3 (stereo unspecified)
  EC50: > 200 µM
  IC50: 35.5 µM

## CCCCCCCCCCCCCCCCCCOCC(O)COP(=O)(O)OCC1OC(n2cc(C)c(=O)[nH]c2=O)CC1N=[N+]=[N-] (stereo unspecified)
  EC50: > 100 µM
  IC50: 31.6 µM

## Nc1ccccc1SC(/C=C/NNC1=NC(c2ccccc2)C(c2ccccc2)=NN1)c1ccccc1 (stereo unspecified)
  EC50: > 100 µM
  IC50: 4.27 µM

## COC(=O)C1(O)C(c2ccccc2)=NC2(C)CCCC21 (stereo unspecified)
  EC50: > 200 µM
  IC50: > 200 µM

## O=C(CC(=O)N(C(=O)c1ccccc1)c1ccc(Cl)cc1)N/N=C\c1ccccc1O
  EC50: > 200 µM
  IC50: > 200 µM

## CC(NNC(=S)N1CCCC1)c1cccnn1 (stereo unspecified)
  EC50: > 200 µM
  IC50: 0.372 µM

## COc1cc(CSc2ccc(O)cc2)cc(O)c1O
  EC50: > 126 µM
  IC50: 22.9 µM

## COC(=O)C(Cc1ccccc1)N=Cc1c(O)c(O)c(C(C)C)c2cc(C)c(-c3c(C)cc4c(C(C)C)c(O)c(O)c(C=NC(Cc5ccccc5)C(=O)OC)c4c3O)c(O)c12 (stereo unspecified)
  EC50: > 11.7 µM
  IC50: > 11.7 µM

## CSC1=NNC(SC)=NN1
  EC50: > 200 µM
  IC50: 0.708 µM

## CC(=O)OCC(OC(C)=O)C(OC(C)=O)C(OC(C)=O)C(C=NN(C(C)=O)S(=O)(=O)c1ccc(/C=C2\NC(=O)N(C)C2=O)cc1)OC(C)=O (stereo unspecified)
  EC50: > 200 µM
  IC50: 7.24 µM and 11.2 µM

## O=C(O)[C@H](CSSC[C@@H](C(=O)O)N1C(=O)c2ccccc2C1=O)N1C(=O)c2ccccc2C1=O
  EC50: > 200 µM
  IC50: > 200 µM

## Cc1cc(N(CCC#N)CCC#N)ccc1N=Nc1cc(Cl)ccc1Cl
  EC50: > 3.72 µM
  IC50: 2 µM

## O=C1C=C(O)c2ccccc2C1=O
  EC50: > 200 µM
  IC50: 120 µM

## CCOC(=O)Nn1c(C)nnc1-c1ccccc1
  EC50: > 200 µM
  IC50: > 200 µM

## CC(C)/C(Cl)=N/OC(=O)Nc1ccc(Cl)c(Cl)c1
  EC50: > 20 µM
  IC50: 3.16 µM

## COc1ccc(NC2=NCCO2)c2ccccc12
  EC50: > 200 µM
  IC50: 46.8 µM

## Cc1ccc(NCCNCCO)c2c(=O)c3ccccc3sc12
  outcome: inactive

## Cc1c(N=Nc2ccc([N+](=O)[O-])cc2)nc2scc(-c3ccccc3)n12
  EC50: > 14.5 µM
  IC50: > 14.5 µM

## O=C1C=CC(=O)c2c(O)c(CO)c(CO)c(O)c21
  outcome: inactive

## C=C(Cl)CSC(=S)N1CCOCC1
  outcome: inactive

## COC(=O)C12CCC(CC1=O)C2(C)C (stereo unspecified)
  EC50: > 251 µM
  IC50: > 251 µM

## O=C(Nc1ccc(Cl)cc1)NS(=O)(=O)c1coc2cc(F)ccc2c1=O
  EC50: > 200 µM
  IC50: 63.1 µM

## CCOC(=O)c1ccc(-n2[nH]nc(C(N)=O)c2=O)cc1
  EC50: > 200 µM
  IC50: > 200 µM

## Cc1cc2c3ccccc3n(C)c2c2c1C(=O)c1ccccc1C2=O
  EC50: > 7.94 µM
  IC50: > 7.94 µM

## O=C(O)CCc1c2ccc(=O)c(O)c-2oc2c(O)c(O)ccc12
  EC50: 85.1 µM
  IC50: 102 µM

## Clc1ccc2c(c1)[nH]c1c2nc2sccn21
  outcome: inactive

## CC1=CC(O)(c2ccc(-c3ccccc3Cl)cc2)OC1=O (stereo unspecified)
  outcome: inactive

## O[C@]12c3ccccc3C1CCCC2N1CCOCC1 (stereo partly specified)
  EC50: > 200 µM
  IC50: > 200 µM

## COc1cc(OC)c2c(c1)C(=O)c1cc(C)cc(O)c1C2=O
  outcome: inactive

## Cc1ccc(C)c(NC(=O)C(=O)Nn2c(=S)[nH]c3ccccc3c2=O)c1
  EC50: > 501 µM
  IC50: 191 µM

## N#Cc1c[nH]c(=O)[nH]c1=O
  EC50: > 200 µM
  IC50: > 200 µM

## CCOP(=O)(OCC)C(c1ccccc1)N(C(=O)NC(F)(F)F)c1cccc(F)c1 (stereo unspecified)
  EC50: > 200 µM
  IC50: 95.5 µM

## N#C/C(=N/Nc1nc[nH]c1C(N)=O)C(=O)Nc1ccccc1
  EC50: > 200 µM
  IC50: 1.07 µM

## C/C(=C(/SS/C(C(=O)O)=C(/C)c1cccc(O)c1)C(=O)O)c1cccc(O)c1
  EC50: > 200 µM
  IC50: 135 µM

## CN1c2ccccc2N(C)P1(=S)c1ccccc1
  EC50: > 200 µM
  IC50: 26.9 µM

## Cc1c2oc(=O)cc(-c3ccccc3)c2cc2c(=O)ccoc12
  EC50: > 22.4 µM
  IC50: > 22.4 µM

## CN(C)c1ccc(/C=C/C=C\C2=CC(=C\C=C/C=C3C=CC(=[N+](C)C)C=C3)/Sc3ccccc32)cc1
  EC50: > 1.78 µM
  IC50: > 1.78 µM

## Cn1c(=O)c2c(nc3n(CC(O)CCl)c(=O)ccn23)n(C)c1=O (stereo unspecified)
  EC50: > 200 µM
  IC50: 22.4 µM

## CC(SCC(=O)O)=[N+]1CCCCC1
  EC50: > 891 µM
  IC50: > 891 µM

## O=C1C(OC(=O)c2ccccc2)=C(c2ccc(O)cc2)C(=O)C(OC(=O)c2ccccc2)=C1c1ccc(O)cc1
  EC50: > 39.8 µM
  IC50: > 39.8 µM

## COC1/C=C\C=C(/C)C(=O)NC2=CC(=O)C(NCCCl)=C(CC(C)CC(OC)C(O)C(C)/C=C(/C)C1OC(N)=O)C2=O (stereo unspecified)
  outcome: inactive

## CCC(=O)OC1CCC2C3CCC(=O)OC3C(C)(CCC(=O)O)CC12C (stereo unspecified)
  EC50: > 200 µM
  IC50: 1.91 µM

## COCC(C#N)NC1CC(OC2CC(O)(C(=O)CO)Cc3c(O)c4c(c(O)c32)C(=O)c2c(OC)cccc2C4=O)OC(C)C1O (stereo unspecified)
  EC50: > 0.2 µM
  IC50: 0.00912 µM

## O=C(OCC(Cl)(Cl)Cl)N1CC[C@@H](C2CCCCC2)C1
  EC50: > 200 µM
  IC50: 52.5 µM

## Cn1c(=O)c2ccc(-c3ccc(Br)cc3)nc2n(C)c1=O
  outcome: inactive

## CCOc1ccccc1NC(=O)C(=O)C1C(=O)Nc2ccccc2S1=O (stereo unspecified)
  outcome: inactive

## O=c1oc2c(ccc3occc32)c(N2CCCCC2)c1-c1ccccc1
  outcome: inactive

## O=C(Nc1ccccc1)OCCN=C1c2ccccc2C(Br)C(Br)c2ccccc21 (stereo unspecified)
  EC50: > 200 µM
  IC50: 0.794 µM

## CC(C)CCCC(C)[C@H]1CC[C@H]2[C@@H]3CC[C@H]4C[C@@H](CCC=C(c5cc(Cl)c(O)c(C(=O)O)c5)c5cc(Cl)c(O)c(C(=O)O)c5)CC[C@]4(C)[C@H]3CC[C@]12C (stereo partly specified) (tested in a mixture with another compound)
  EC50: > 100 µM
  IC50: 40.7 µM

## C/C=C/COc1cc(NC(=S)c2ccoc2C)ccc1OC
  EC50: 0.813 µM
  IC50: 1.62 µM

## Cc1cn(CC(CO)CCO)c(=O)[nH]c1=O (stereo unspecified)
  EC50: > 1100 µM
  IC50: > 1100 µM

## Cc1ccc(NC2=N/C(=C/c3ccco3)C(Cl)=N2)cc1
  EC50: > 200 µM
  IC50: 158 µM

## O=C(O)c1ccc2c(c1)S(=O)(=O)NC2=O
  EC50: > 1100 µM
  IC50: > 1100 µM

## CCCCCCCCCCCCCCCCCCNC(=O)c1ccccc1[Se][Se]c1ccccc1C(=O)NCCCCCCCCCCCCCCCCCC
  EC50: > 0.794 µM
  IC50: > 0.794 µM

## Nc1nnnc2nc[nH]c12
  EC50: > 20 µM
  IC50: 0.537 µM

## ClC1(Cl)C2(Cl)C3(Cl)C4C2(Cl)C2(Cl)C4(Cl)C3(Cl)C12Cl (stereo unspecified)
  EC50: > 200 µM
  IC50: 33.1 µM

## Cn1c(CNc2ccc(-c3n[nH]c(=S)n3C)cc2)n[nH]c1=S
  EC50: > 200 µM
  IC50: > 200 µM

## N/N=C(\CC1OC(=O)c2ccccc21)c1ccco1 (stereo unspecified)
  EC50: > 977 µM
  IC50: 617 µM

## COC(=O)/C=C1\C[C@H]2O[C@@](O)(C1)[C@H](C)C(=O)O[C@H]1C[C@@H](C=C(C)C)O[C@@H](CC3(O)O[C@H](CC[C@H]2O)[C@@H](C)[C@]2(O)CC[C@@H](C)C(=O)C32)[C@H]1C (stereo partly specified)
  outcome: inactive

## Cc1cc(NS(=O)(=O)c2ccc(NC(=O)c3ccccc3SC(=O)CCCC[n+]3ccccc3)cc2)nc(C)n1
  EC50: 26.3 µM
  IC50: 107 µM

## NCCCN1CCN(CC(=O)O)CCN(CCCN)CCN(CC(=O)O)CC1
  EC50: > 200 µM
  IC50: 4.37 µM

## O=C1CC(CC(O)C2CCCC2O)CC(=O)N1 (stereo unspecified)
  EC50: > 200 µM
  IC50: > 200 µM

## CN(C)N=Nc1cccc(C(N)=O)c1
  EC50: > 646 µM
  IC50: 145 µM

## CC(C)(C)C(=O)Oc1ccc(/C=C/C(=O)c2ccc(OC(=O)C(C)(C)C)cc2)cc1
  EC50: > 200 µM
  IC50: 38 µM

## NC(N)=NS(=O)(=O)c1ccc(NC(=O)c2ccc(Cl)c3c(Nc4ccc(S(=O)(=O)N=C(N)N)cc4)c4ccccc4nc23)cc1
  EC50: > 28.2 µM
  IC50: > 28.2 µM

## COc1cc(C)cc2c1C(=O)C(Br)(Br)CC2
  EC50: > 2 µM
  IC50: 0.955 µM

## CCOC(=O)C(=Cc1cccc(C#N)c1)C(=O)OCC
  EC50: > 132 µM
  IC50: 8.51 µM

## CC1=C(C(=O)Nc2cccc(C(F)(F)F)c2)C(c2ccccc2F)C(C(=O)Nc2cccc(C(F)(F)F)c2)=C(C)N1
  EC50: > 32.4 µM
  IC50: 18.6 µM
